Measured values from publication PMC11814485, “Screening of homing and tissue-penetrating peptides by microdialysis and in vivo phage display” (Life Science Alliance, 2025).

Legend:
[1] = system: skin wounds; assay: Homing of systemically administered FAM-peptides to mouse skin excision wounds and normal organs (anti-FAM staining, QuPath); format: in vivo, mouse (BALB/cJRj); settings: for localisation in skin wound / accumulation in normal organs: tail vein, 150 min; for localisation in skin wound: anti-FAM and anti-CD31 staining; for accumulation in normal organs: normal skin, heart, liver, lung, spleen, kidney, anti-FAM staining
Protocol: We next studied homing of systemically administered CDD, CPK, and CYH peptides in mouse skin excision wounds at the peak of neovascularization, 7 d after wounding. The peptides were injected into the tail vein and allowed to circulate for 2.5 h. The systemically administered peptides were detected in the granulation tissue of the wounds outside of the blood vessels (Figs 2 and S4). […] In contrast, the peptides were undetectable in normal skin (Fig S5A), heart, liver, lung, and spleen (Fig S5B), except for strong signal related to peptide secretion from the kidney glomeruli (Fig S5B).
Figure 2. Microdialysis-captured peptides home to skin wounds and localize in granulation tissue. […] Six-mm-diameter full-thickness wounds were cut in the back skin of 8-wk-old male mice. After 7 d, the peptides or PBS was injected systemically (tail vein). The peptides were allowed to circulate for 150 min before the vasculature was thoroughly perfused. The wound tissue was fixed, and microscopic sections were stained with anti-FAM and hematoxylin. (A, B) Magnifications of areas marked in panel (A) are represented in panel (B) with adjacent sections stained with anti-CD31 to visualize the blood vessels. The scale bar is 500 μm for panel (A) and 125 μm for panel (B). Images are representative of two separate experiments, four mice in each peptide group.
Figure 3. Microdialysis-captured peptides home to skin wounds and penetrate blood–retina barrier in retinopathy. Systemically administered homing peptides CDD, CPK, and CYH accumulate in skin wounds and penetrate blood–retina barrier in retinopathy. Full-thickness wounds, 6 mm in diameter, in the back skin of 8-wk-old male mice were used. After 7 d, each peptide or PBS was injected into the tail vein. For retinopathy experiments, oxygen-induced retinopathy (OIR) was induced by placing mouse pups at day P7 in a hyperoxia chamber for 5 d. On P17, when the angiogenesis peaks in this OIR model, the peptides were injected into the tail vein. The peptides circulated for 150 min (wounds) and 120 min (OIR) before the vasculature was thoroughly perfused. The skin wounds and eyeballs were fixed, and histological samples stained with anti-FAM and hematoxylin. Peptide homing was quantified with the automated image analysis system. (A) Microdialysis-identified peptides home to skin wounds. […] (D) All three microdialysis-identified peptides also accumulate substantially in the vitreous in the OIR model. *P < 0.05, **P < 0.01, ***< 0.001. Each datapoint represents an individual wound, retina, or vitreous. N = 3 for skin wound, and N = 6 and N = 8 for normal and OIR retinas.
Male BALB/cJRj and diabetic male BKS(D)-Lepr^db/JOrlRj mice were used for the peptide homing experiment. The BALB/cJRj mice were 8 wk old and weighed 24–28 g. The BKS(D)-Lepr^db/JOrlRj mice were 14 wk old and weighed 45–58 g, and their blood sugar levels were over 33 mmol/liter. Four full-thickness circular wounds were created on a shaved and disinfected skin with a 6-mm-diameter biopsy punch and scissors under isoflurane anesthesia (Attane vet 1,000 mg/g; Piramal Critical Care B.V.) and buprenorphine analgesia (0.15 mg/kg; Vetergesic vet 0.3 mg/ml; Ceva Santé Animal). Seven days after the wounding, the homing experiment was performed. The animal use was accepted by the National Animal Ethics Committee of Finland on 12 September 2017 (ESAVI/6422/04.10.07/2017) and on 4 January 2022 (ESAVI/39175/2021).
BALB/cJRj and diabetic male BKS(D)-Lepr^db/JOrlRj mice with 7-d-old skin wounds were used for the peptide homing experiment. FAM-labeled peptides were dissolved in the PBS just before the experiment. 5 mg/kg (BALB/cJRj) or 1,5 mg/kg (BKS(D)-Lepr^db/JOrlRj) of each peptide (CAR, CDD, CPK, CYH, and a control peptide) in PBS or plain PBS (control) was injected on the tail vein under sevoflurane anesthesia. […]

[2] = system: diabetic skin wounds; assay: Homing of FAM-peptides to skin wounds in diabetic mice; format: in vivo, mouse (BKS(D)-Lepr^db/JOrlRj); settings: 1.5 mg/kg systemically, 150 min, day 7 wound, anti-FAM staining, one animal with two wounds per group
Description: Next, we wanted to study the utility of the newly identified peptides as vehicles for targeting diabetic skin wounds. Compromised angiogenesis in diabetic wounds leads to deficient granulation tissue formation and poses an important hindrance to systemic drug delivery. BALB/cJRj and diabetic male BKS(D)-Lepr^db/JOrlRj mice were wounded and systemically dosed with fluorophore-labeled peptides 7 d after the skin wounding. For all tested peptides, we observed peptide accumulation in the granulation tissue where angiogenesis takes place (Fig S6).
Figure S6. Microdialysis-captured peptides home to skin wounds in diabetic mice. […] Full-thickness wounds 6 mm in diameter were cut in the back skin of 14-wk-old male diabetic mice. After 7 d, 1.5 mg/kg of each peptide or PBS was injected systemically. The CAR peptide was used as a control. The peptide circulated for 150 min before the vasculature was perfused. The wounds were fixed with 4% PFA in PBS, and microscopic sections were stained with anti-FAM and hematoxylin. (A) Images of entire wounds. (B) Magnifications of areas marked in (A) with anti-CD31 staining of the adjacent sections. (A, B) Scale bars are 500 μm for (A) and 125 μm for (B). Images are representative of one animal with two wounds in each group.
Male BALB/cJRj and diabetic male BKS(D)-Lepr^db/JOrlRj mice were used for the peptide homing experiment. The BALB/cJRj mice were 8 wk old and weighed 24–28 g. […]
After 24-h (or 4 h for eyeballs) fixation in 4% PFA, the tissues were rinsed in 70% EtOH and embedded in paraffin. To avoid autofluorescence, the peptides were detected by staining the sections with rabbit anti-FITC/-FAM (71-1900; Thermo Fisher Scientific, 1:400 BALB/cJRj and C57BL/6Rj or 1:100 BKS(D)-Lepr^db/JOrlRj) in Dako antibody diluent (Agilent) and Biocare Medical Rabbit on Rodent (RMR622H; Biocare Medical) with XM-Factor (XMF963C; Biocare Medical) as described previously ([Robinson et al, 2010]; [Urakami et al, 2011]; [Toba et al, 2014]; [Pemmari, et al, 2020b]). […]

Sequence: CDDYQQISC [FAM-labeled synthetic peptide …]
- accumulation in skin wounds relative to a control ([1]; mouse day 7 wound, 5 mg/kg tail vein, 150 min circulation, anti-FAM positive area, N = 3): 12 fold
- localisation in skin wound ([1]; mouse day 7 wound): accumulated in wound regions containing blood vessels and in surrounding extravascular granulation tissue
- accumulation in normal organs [1]: do not accumulate in normal, healthy organs except in the kidneys
- homing to skin wounds in diabetic mice [2]: home and penetrate to the granulation tissue

Sequence: CYHDTYPNC [FAM-labeled synthetic peptide …]
- localisation in skin wound ([1]; mouse day 7 wound): accumulated in wound regions containing blood vessels and in surrounding extravascular granulation tissue
- accumulation in normal organs [1]: do not accumulate in normal, healthy organs except in the kidneys
- homing to skin wounds in diabetic mice [2]: home and penetrate to the granulation tissue

Sequence: CPKKHHLDC [FAM-labeled synthetic peptide …]
- localisation in skin wound ([1]; mouse day 7 wound): accumulated in wound regions containing blood vessels and in surrounding extravascular granulation tissue
- accumulation in normal organs [1]: do not accumulate in normal, healthy organs except in the kidneys
- homing to skin wounds in diabetic mice [2]: home and penetrate to the granulation tissue
